Each compound was assayed against His-tagged recombinant human Gal-3 (hGal-3) (Homo sapiens, UniProt P17931) (assay: Gal-3 HTRF assay (hGal-3 / B-ASF binding inhibition)). Details: Examples 26 to 29 and 66 to 68; HTRF, 15 nM hGal-3, 15 nM B-ASF.
Description: ASSAY BUFFER Composition: 25 mM HEPES, 100 mM NaCl, 0.005% Tween 20, 0.05% BSA prepared in sterile water (all reagents from Sigma).
Positive Control: 100% DMSO (1 μL)+His-tagged hGal-3 (20 μL)+β-ASF (20 μL)+Anti-His Terbium Antibody (5 μL)+Strep d2 Antibody (5 μL).
Negative Control: 100% DMSO (1 μL)+His-tagged hGal-3 (20 μL)+Anti His Terbium Antibody (5 μL)+Strep d2 Aantibody (5 μL).
PROTOCOL: The Gal-3 assays were performed in 384 white Opti plates in three replicates at room temperature with gentle shaking at 250-300 rpm From the original stocks, […] working stock concentrations of His-tagged recombinant human Gal-3 (hGal-3) and that of B-ASF were prepared. From the working stock, 20 μL of hGal-3 (15 nM) and 20 μL B-ASF (15 nM) were added to the plates. In Negative Control, only hGal-3 was added. A concentration range of 50× working stocks were prepared for the compounds in 100% DMSO. Aliquots of 1 μL of the compounds were added to the wells and pre-incubated with 20 μL hGal-3 per well for 30 minutes Then 20 μL B-ASF were added and incubated for another 1 hour. To detect the signal, 5 μL (final conc. of 1.0 nM) terbium labelled Anti-His antibody was added and incubated for 30 min followed by adding 5 μL (final conc. of 20 nM) Streptavidin d2 and incubation for another 1 hour. The assay signal was detected using HTRF screen protocol (Excitation wavelength=340 nm, emission wavelength=615 nm/665 nm) on Envision 2104 Multilabel Reader. Data analysed using Toolset and Curve Master. Results are reported in the experimental section (IC50 in μM).

His-tagged recombinant human Gal-3 (hGal-3), sequence (P17931 whole entry): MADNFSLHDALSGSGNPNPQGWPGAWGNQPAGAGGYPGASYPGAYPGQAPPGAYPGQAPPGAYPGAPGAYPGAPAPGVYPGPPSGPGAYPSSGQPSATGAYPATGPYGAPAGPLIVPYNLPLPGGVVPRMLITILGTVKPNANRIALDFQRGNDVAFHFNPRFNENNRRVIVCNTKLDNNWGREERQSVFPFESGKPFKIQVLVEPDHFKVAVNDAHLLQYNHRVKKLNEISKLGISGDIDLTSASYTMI

| Structure (SMILES) | IC50 [nM] |
| --- | --- |
| OC[C@H]1O[C@@H](c2n[nH]c(=S)n2-c2cc(Cl)ccc2C(F)(F)F)[C@H](O)[C@@H](n2cc(-c3ccc(Br)c(F)c3F)nn2)[C@H]1O (single isomer, unassigned) [Example 28] | 6.9 |
| OC[C@H]1O[C@@H](c2nncn2-c2cc(Cl)ccc2C(F)(F)F)[C@H](O)[C@@H](n2cc(-c3ccc(Br)c(F)c3F)nn2)[C@H]1O [Example 26, (2S,3R,4R,5R,6R)-4-(4-(4-bromo-2,3-difluorophenyl)-1H-1,2,3-triazol-1-yl)-2-(4-(5-chloro-2-(trifluoromethyl)phenyl)-4H-1,2,4-triazol-3-yl)-6-(hydroxymethyl)tetrahydro-2H-pyran-3,5-diol] | 10 |

Second part, the compound after the results:

| IC50 [nM] | Structure (SMILES) |
| --- | --- |
| 750 | Cn1nc([C@@H]2O[C@H](CO)[C@H](O)[C@H](n3cc(-c4ccc(Br)c(F)c4F)nn3)[C@H]2O)n(-c2cc(Cl)ccc2C(F)(F)F)c1=S [Example 66, 5-((2S,3R,4R,5R,6R)-4-(4-(4-bromo-2,3-difluorophenyl)-1H-1,2,3-triazol-1-yl)-3,5-dihydroxy-6-(hydroxymethyl)tetrahydro-2H-pyran-2-yl)-4-(5-chloro-2-(trifluoromethyl)phenyl)-2-methyl-2,4-dihydro-3H-1,2,4-triazole-3-thione] |
| 9.3 | Cn1nc([C@@H]2O[C@H](CO)[C@H](O)[C@H](n3cc(-c4ccc(Br)c(F)c4F)nn3)[C@H]2O)n(-c2cc(Cl)ccc2C(F)(F)F)c1=S [Example 67, 5-((2S,3R,4R,5R,6R)-4-(4-(4-bromo-2,3-difluorophenyl)-1H-1,2,3-triazol-1-yl)-3,5-dihydroxy-6-(hydroxymethyl)tetrahydro-2H-pyran-2-yl)-4-(5-chloro-2-(trifluoromethyl)phenyl)-2-methyl-2,4-dihydro-3H-1,2,4-triazole-3-thione] |

Same assay, conditions: table of Examples 5 to 25

| Structure (SMILES) | IC50 [nM] |
| --- | --- |
| Cc1nc([C@@H]2O[C@H](CO)[C@H](O)[C@H](n3cc(-c4ccc(Cl)c(C)c4F)nn3)[C@H]2O)n(-c2cc(Cl)ccc2C(F)(F)F)n1 [Example 17] | 18 |
| Cc1nc([C@@H]2O[C@H](CO)[C@H](O)[C@H](n3cc(-c4ccc(Br)c(F)c4F)nn3)[C@H]2O)n(-c2cc(Cl)ccc2OC(F)(F)F)n1 [Example 10] | 11 |
| Cc1nc([C@@H]2O[C@H](CO)[C@H](O)[C@H](n3cc(-c4ccc(Cl)c(F)c4F)nn3)[C@H]2O)n(-c2ccc3ncsc3c2)n1 [Example 20] | 9 |
| Cc1nc([C@@H]2O[C@H](CO)[C@H](O)[C@H](n3cc(-c4ccc5ccccc5c4F)nn3)[C@H]2O)n(-c2cc(Cl)ccc2C(F)(F)F)n1 [Example 6] | 62 |
| Cc1nc([C@@H]2O[C@H](CO)[C@H](O)[C@H](n3cc(-c4ccc(Cl)c(Cl)c4F)nn3)[C@H]2O)n(-c2cc(Cl)ccc2C(F)(F)F)n1 [Example 7] | 6 |
| Cc1nc([C@@H]2O[C@H](CO)[C@H](O)[C@H](n3cc(-c4ccc(Br)c(F)c4F)nn3)[C@H]2O)n(-c2cc(Cl)ccc2C2CC2)n1 [Example 23] | 20 |
| Cc1nc([C@@H]2O[C@H](CO)[C@H](O)[C@H](n3cc(-c4ccc(Br)c(F)c4C)nn3)[C@H]2O)n(-c2cc(Cl)ccc2C(F)(F)F)n1 [Example 16] | 74 |

Same assay, conditions: table of Examples 30 to 65

| Structure (SMILES) | IC50 [nM] |
| --- | --- |
| OC[C@H]1O[C@@H](c2nncn2-c2cc(Cl)ccc2OC(F)(F)F)[C@H](O)[C@@H](n2cc(-c3ccc(Cl)c(F)c3F)nn2)[C@H]1O [Example 51] | 14 |
| OC[C@H]1O[C@@H](c2nncn2-c2cc(Cl)ccc2OC(F)(F)F)[C@H](O)[C@@H](n2cc(-c3ccc(Br)c(F)c3F)nn2)[C@H]1O [Example 38] | 11 |
| CO[C@@H]1[C@@H](n2cc(-c3cc(F)c(Br)c(F)c3)nn2)[C@@H](O)[C@@H](CO)O[C@H]1c1ncnn1-c1cc(Cl)ccc1C(F)(F)F [Example 31] | 24 |
| OC[C@H]1O[C@@H](c2nncn2-c2cc(Cl)ccc2OC(F)(F)F)[C@H](O)[C@@H](n2cc(-c3c(F)c(F)c(Br)c(F)c3F)nn2)[C@H]1O [Example 47] | 14 |
| OC[C@H]1O[C@@H](c2nncn2-c2cc(Cl)ccc2C(F)(F)F)[C@H](O)[C@@H](n2cc(-c3c(F)c(F)c(Br)c(F)c3F)nn2)[C@H]1O [Example 37] | 5.7 |

Now from value to compound:

| IC50 [nM] | Structure (SMILES) |
| --- | --- |
| 57 | OC[C@H]1O[C@@H](c2nncn2-c2cc(Cl)ccc2OC(F)(F)F)[C@H](OCC(F)(F)F)[C@@H](n2cc(-c3ccc(Br)c(F)c3F)nn2)[C@H]1O [Example 59] |
| 14 | OC[C@H]1O[C@@H](c2nncn2-c2cc(Cl)ccc2C(F)(F)F)[C@H](OCC(F)(F)F)[C@@H](n2cc(-c3ccc(Br)c(F)c3F)nn2)[C@H]1O [Example 58] |
| 78 | OC[C@H]1O[C@@H](c2nncn2-c2cc(Cl)ccc2C(F)(F)F)[C@H](OCC(F)(F)F)[C@@H](n2cc(-c3ccc(Br)c(F)c3)nn2)[C@H]1O [Example 63] |
| 18 | OC[C@H]1O[C@@H](c2nncn2-c2cc(Cl)ccc2C(F)(F)F)[C@H](OCC(F)(F)C(F)F)[C@@H](n2cc(-c3ccc(Br)c(F)c3F)nn2)[C@H]1O [Example 65] |
| 100 | OC[C@H]1O[C@@H](c2nncn2-c2cc(Cl)ccc2C(F)(F)F)[C@H](OCC(F)(F)C(F)F)[C@@H](n2cc(-c3ccc(Br)c(F)c3)nn2)[C@H]1O [Example 64] |
| 21 | OC[C@H]1O[C@@H](c2nncn2-c2cc(Cl)ccc2OC(F)(F)F)[C@H](OCC(F)F)[C@@H](n2cc(-c3ccc(Br)c(F)c3F)nn2)[C@H]1O [Example 57] |

Same assay, conditions: table of Examples 69 to 75

| Structure (SMILES) | IC50 [nM] |
| --- | --- |
| Cc1nc2ccc(-n3cnnc3[C@@H]3O[C@H](CO)[C@H](O)[C@H](n4cc(-c5ccc(Br)c(F)c5F)nn4)[C@H]3OCC(F)F)cc2s1 [Example 71] | 20 |
| Cc1nc2ccc(-n3cnnc3[C@@H]3O[C@H](CO)[C@H](O)[C@H](n4cc(-c5cc(F)c(Cl)c(Cl)c5)nn4)[C@H]3O)cc2s1 [Example 74] | 35 |
| Cc1nc2ccc(-n3cnnc3[C@@H]3O[C@H](CO)[C@H](O)[C@H](n4cc(-c5cc(F)c(Cl)c(Cl)c5)nn4)[C@H]3OCC(=O)O)cc2s1 [Example 75] | 18 |

Same assay, conditions: text of Examples 1 to 4; HTRF, 15 nM hGal-3, 15 nM B-ASF

| Structure (SMILES) | IC50 [nM] |
| --- | --- |
| CO[C@@H]1[C@@H](n2cc(-c3ccc(Br)c(F)c3F)nn2)[C@@H](O)[C@@H](CO)O[C@H]1c1nc(C)nn1-c1ccc2ncsc2c1 [Example 2, (2R,3R,4S,5R,6S)-6-(1-(Benzo[d]thiazol-6-yl)-3-methyl-1H-1,2,4-triazol-5-yl)-4-(4-(4-bromo-2,3-difluorophenyl)-1H-1,2,3-triazol-1-yl)-2-(hydroxymethyl)-5-methoxytetrahydro-2H-pyran-3-ol] | 13 |
| COc1cc(-c2cn([C@H]3[C@@H](O)[C@@H](CO)O[C@@H](c4nc(C)nn4-c4cc(Cl)ccc4C(F)(F)F)[C@@H]3O)nn2)cc(F)c1Cl [Example 3, (2S,3R,4R,5R,6R)-2-(1-(5-Chloro-2-(trifluoromethyl)phenyl)-3-methyl-1H-1,2,4-triazol-5-yl)-4-(4-(4-chloro-3-fluoro-5-methoxyphenyl)-1H-1,2,3-triazol-1-yl)-6-(hydroxymethyl)tetrahydro-2H-pyran-3,5-diol] | 14 |

From patent US12275719B2, “Small molecule inhibitors of galectin-3” (BRISTOL-MYERS SQUIBB COMPANY, priority 2019, dated 2025)
